Molecules are shown by their SMILES. Calls of active or inactive are those of the source. No rule for the calls is given here.

The IC50 is the midpoint of a concentration-inhibition curve.

This assay can be described thus: EBV protein-peptide binding inhibitors, dose response, biochemical, fluorescence polarization (AID 1419). The following applies: cell-free protein-peptide binding, 2 h; for fold change: measured here: P channel fold over control, at 54 µM. For orientation: In fluorescence polarisation assays a small probe gives low polarisation when free and higher when bound to something large.

In the case of `COc1ccc(Cc2nnc(NC(=O)Cc3cccs3)s2)cc1`, the IC50 is > 54 µM (inactive) and the fold change stood at 1.04.
In the case of `O=c1ccc2[n+]([O-])c3ccc(O)cc3oc-2c1`, the IC50 is 1.34 µM and the fold change came out at 5.06.
With `CCOc1ccc(N=C2NC(=O)S/C2=C\c2ccc(N(C)C)cc2)cc1`, the IC50 is 5.8 µM and the fold change came to 8.81.
Take `Fc1ccc(/C=N/NC2=Nc3cccc4cccc2c34)cc1`: the half-maximal inhibitory concentration (IC50) was 7.4 µM and the fold change was 3.32.
Take `O=c1[nH]c(S)c(/C=C2\C=Nc3ccccc32)s1`: the IC50 was 2 µM and the fold change worked out at 3.56.
Take `N=C1/C(=C\c2ccc(-c3ccc(C(=O)O)cc3)o2)C(=O)N=C2SC=C(c3ccccc3)N12`: the IC50 is 3.3 µM and the fold change came out at 1.28.
The corresponding values for `O=[N+]([O-])c1ccc(/C=N/n2c(CO)nc3ccccc32)s1` are 22.7 µM and 6.56.
For `COC(=O)C1C=C2c3cccc4[nH]cc(c34)CC2N(C)C1` (stereo not drawn), the half-inhibitory concentration (IC50) is 1.66 µM and the fold change came to 6.81.
With `O=S(=O)(Nc1ccc2c(c1)OCCO2)c1cccc2cccnc12`, the IC50 is > 54 µM (inactive) and the fold change amounted to 0.963.
As for `Cc1c2ccccc2nc2c(F)c(NCCO)c(F)c(F)c12`, the IC50 was under 0.42 µM and the fold change came out at 40.1.
The corresponding values for `CCCCn1c(N)c(NCCC(C)C)c(=O)[nH]c1=O` are 24.4 µM and 1.91.
Consider `O=C1c2cccc3c(N4CCCCC4)ccc(c23)C(=O)N1c1ccccn1`, for which the IC50 is under 0.42 µM and the fold change worked out at 11.5.
Consider `Nc1nnc(-c2cc3c(ccc4ccccc43)oc2=O)s1`, for which the IC50 is under 0.42 µM and the fold change was found to be 2.34.
The corresponding values for `N#CC1=C(N)Oc2ccc3ccc(O)cc3c2C1c1ccsc1` (stereo not drawn) are 1.97 µM and 2.08.
On to `COc1ccc(-c2nnc(Nc3ccc(S(=O)(=O)Nc4nccs4)cc3)c3ccccc23)cc1`, for which the IC50 was > 54 µM (inactive) and the fold change was 1.09.
Regarding `O=C(OCCN1C(=O)c2cccc3c(N4CCOCC4)ccc(c23)C1=O)c1cc(Cl)cc(Cl)c1`, the IC50 is 1.42 µM and the fold change was found to be 49.6.
For `Cc1cc(=O)oc2c(CN3CCC(C)CC3)c(O)c(Cl)cc12`, the IC50 is 2.42 µM and the fold change turned out to be 2.16.
The corresponding values for `Cn1cc(Cl)c(C(=O)Nc2nc3ccc([N+](=O)[O-])cc3s2)n1` are > 54 µM (inactive) and 0.983.
The corresponding values for `Cc1cc(NC(=O)Cc2cccs2)no1` are 16.9 µM and 1.09.
In the case of `COc1ccc2c(C=Nc3c(C)n(C)n(-c4ccccc4)c3=O)c(O)n(Cc3ccco3)c(=O)c2c1`, the IC50 was 4.28 µM and the fold change was 3.39.
The corresponding values for `O=C1c2cccc3c([N+](=O)[O-])ccc(c23)C(=O)N1CC1CCCO1` (stereo not drawn) are 13.8 µM and 2.37.
In the case of `C#CCn1cc(C=C2C(=O)c3ccccc3C2=O)c2ccccc21`, the IC50 is 9.87 µM and the fold change came out at 4.31.
The corresponding values for `CC(C)N(C(=O)C[n+]1ccc(/C=N/O)cc1)C(C)C` are > 54 µM (inactive) and 1.05.
`COc1ccccc1NC(=O)c1sc2nc(Cc3ccccc3)cc(C(F)(F)F)c2c1N`: the IC50 was 1.71 µM and the fold change amounted to 10.7.
The corresponding values for `O=S(=O)(Nc1nc2ccccc2nc1N1CCN(c2ccccn2)CC1)c1ccc(Cl)cc1` are > 54 µM (inactive) and 2.14.
The corresponding values for `CC(C)OC(=O)c1c2c(n3ccccc13)C(=O)c1ccccc1C2=O` are 3.85 µM and 2.93.
Take `COc1ncnc2c1N=C1CC(C)(C)CC(N)=C1S2`: the IC50 was 2.31 µM and the fold change worked out at 6.34.
Regarding `COc1ccc(Cc2nnc(NC(=O)Cc3cccs3)s2)cc1OC`, the IC50 is > 54 µM (inactive) and the fold change amounted to 1.15.
The corresponding values for `COc1ccc(C(=O)c2sc3nc(C)cc(-c4cccs4)c3c2N)cc1OC` are 16.5 µM and 7.43.
The corresponding values for `Cc1cccn2c(=O)c3cc(C(=O)NCc4ccco4)c(=N)n(CCOCCO)c3nc12` are 3.61 µM and 3.76.
Regarding `COc1ncnc2c1NC1=C(S2)C(=NCCC(=O)O)CC(C)(C)C1`, the 50% inhibitory concentration (IC50) was 0.93 µM and the fold change is 8.12.
Turning to `O=C(N/N=C/c1ccc(F)cc1)c1cc(-c2ccco2)nc2ccccc12`, the half-maximal inhibitory concentration (IC50) was 3.56 µM and the fold change stood at 0.96.
For `C=CCSc1nccc(-c2cc(Cl)sc2Cl)n1`, the IC50 was > 54 µM (inactive) and the fold change came to 0.953.
The corresponding values for `O=[N+]([O-])c1cccc(-c2cn3nc(-c4ccccc4)c(-c4ccccc4)nc3n2)c1` are 5.71 µM and 6.61.
`Cc1c2ccccc2nc2c(F)c(N(C)C)c(F)c(F)c12`: the 50% inhibitory concentration (IC50) was under 0.42 µM and the fold change is 8.81.
On to `CC(=C/c1ccccc1)/C=N/NC(=O)c1cnccn1`, for which the IC50 is > 54 µM (inactive) and the fold change came out at 1.1.
On to `c1ccc2c(c1)CCCN2Cc1nnnn1CC1CCCO1` (stereo not drawn), for which the IC50 was 4.98 µM and the fold change was found to be 2.55.
On to `O=C1/C(=C/c2ccco2)Oc2c1ccc(O)c2CN1CCCCC1`, for which the IC50 was 1.93 µM and the fold change stood at 22.1.
As to `CC(C)(O)[C@H]1O[C@H]2CC[C@@]3(C)[C@@](O)(CC[C@H]4Cc5c([nH]c6ccccc56)[C@@]43C)C2=CC1=O`, the half-inhibitory concentration (IC50) was 2.03 µM and the fold change stood at 3.36.
Turning to `N=c1oc2cc(O)ccc2cc1C(=O)Nc1nc2ccccc2s1`, the 50% inhibitory concentration (IC50) was 13 µM and the fold change was found to be 2.65.
In the case of `NC(=S)n1[nH]c(-c2ccc([N+](=O)[O-])cc2)c(N=Nc2cccc(Cl)c2)c1=O`, the concentration for half-maximal inhibition (IC50) was 3.74 µM and the fold change is 1.19.
Turning to `Cn1c(SCC(=O)Nc2ccc3nc(SCC(=O)N4CCCC4)sc3c2)nnc1-c1ccccc1`, the IC50 is > 54 µM (inactive) and the fold change was determined as 1.08.
Consider `CCOC(=O)C1CCCN(c2ccc([N+](=O)[O-])c3nonc23)C1` (stereo not drawn), for which the IC50 is under 0.42 µM and the fold change was 143.
As to `CN(c1ncc(C(F)(F)F)cc1Cl)N1C(=O)c2cccc(N)c2C1=O`, the IC50 was 3.83 µM and the fold change was determined as 1.88.
On to `CCc1ccc[n+](-c2[nH]c(=O)sc2/C=N/NC([S-])=Nc2ccccc2)c1`, for which the IC50 was 22.1 µM and the fold change amounted to 2.13.
Consider `CCN(c1ccc(N=Cc2c(O)n(Cc3ccc(OC)cc3)c(=O)c3ccccc23)cc1)C(C)C`, for which the IC50 is 2.17 µM and the fold change came out at 132.
Regarding `CN(C)c1ccc2c3c(cccc13)C(=O)N(c1ccccc1)C2=O`, the half-inhibitory concentration (IC50) is 4.05 µM and the fold change worked out at 11.
Consider `Cc1ccc(S(=O)(=O)Nc2nc3ccccc3nc2Nc2cccc(S(=O)(=O)N3CCCC3)c2)cc1`, for which the 50% inhibitory concentration (IC50) is 2.64 µM and the fold change came to 2.44.
`CCOC(=O)[C@]1(C#N)[C@@H]2C=CC(C(C)=O)=CN2[C@@H](C(N)=O)[C@@H]1c1ccsc1`: the IC50 was 4.35 µM and the fold change stood at 3.68.

The values above are taken from PubChem BioAssay AID1419 (Emory University Molecular Libraries Screening Center, 2008).
